Test [1] deals with T1, human tyrosinase (Homo sapiens, UniProt P14679).
T1 construct: gene TYR; recombinant human tyrosinase (OriGene TP321797L)
T1 sequence (P14679 19-529): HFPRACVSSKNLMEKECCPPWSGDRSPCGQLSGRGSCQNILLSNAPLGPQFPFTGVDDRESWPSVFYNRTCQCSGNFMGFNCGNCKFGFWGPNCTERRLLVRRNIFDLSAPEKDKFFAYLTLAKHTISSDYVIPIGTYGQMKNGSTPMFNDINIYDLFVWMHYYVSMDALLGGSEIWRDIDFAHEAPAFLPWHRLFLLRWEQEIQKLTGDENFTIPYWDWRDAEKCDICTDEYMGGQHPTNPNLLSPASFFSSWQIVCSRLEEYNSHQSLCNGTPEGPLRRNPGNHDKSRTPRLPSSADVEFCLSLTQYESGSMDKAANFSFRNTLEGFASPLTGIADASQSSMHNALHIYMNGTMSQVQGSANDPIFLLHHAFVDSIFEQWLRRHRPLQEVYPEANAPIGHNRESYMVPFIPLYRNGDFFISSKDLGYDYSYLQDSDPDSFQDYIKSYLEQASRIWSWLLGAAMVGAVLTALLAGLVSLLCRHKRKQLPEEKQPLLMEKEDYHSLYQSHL
As to the kind of experiment: substrate of the tyrosinase assay ([…]), absorbance at […] nm. The format is biochemical.

For test [2], the target named is T1, human tyrosinase. As to the kind of experiment: L-DOPA oxidation assay with recombinant human tyrosinase, absorbance at […] nm. The format is biochemical.

Like-named read-outs stand apart in the source and are kept apart here.

As for `N[C@@H](Cc1ccc(O)c(O)c1)C(=O)O` [L-DOPA], the “substrate of the tyrosinase assay (0.5 mM), absorbance at 492 nm” value on human tyrosinase [1] was “Inhibition of human tyrosinase activity by oxyresveratrol, resveratrol, phenylethyl resorcinol, and glabridin in vitro, using L-DOPA as substrate”. Regarding `CC(c1ccccc1)c1ccc(O)cc1O` (stereo not drawn) [compound 3, Phenylethyl resorcinol], on human tyrosinase [2] (read-out: IC50 (μg/mL) (converted)), the IC50 was 88.5 µM. As for `Oc1ccc(/C=C/c2cc(O)cc(O)c2)cc1` [compound 2, Resveratrol], the IC50 on human tyrosinase [2] is 57.2 µM.
